This note sets out measurements from patent publication US20070197388A1, “Haloperoxidase treatment to control algae” (Buckman Laboratories International, Inc., priority 2006, published 2007).

Type in all cases: cell-based
The test system of assay [1] is Enterobacter aerogenes (ATCC 13048). Nature of the assay: Evaluation of bactericidal activity (MIC, >=90% kill) and checkerboard synergy, Enterobacter aerogenes. The conditions noted are these: Klebsiella aerogenes, ATCC13048; alone; system with 2 ppm a.i. Hydrogen Peroxide; 18 hours at 37° C.; read-out: MICA = MIC of Dichloramine B. The method, then:
Synergy Evaluation: Synergy was measured by checkerboards dilutions (Yan and Hancock, 2001), in which one compound is diluted along the rows of test tubes and the other is diluted along the columns. This method focuses on looking for a reduction in the MIC of each component in the presence of the other. The result is expressed as the Fractional Inhibitory Concentration Index (FIC), calculated as follows: FIC=[A]/MICA+[B]/MICB where, • MICA and MICB=MICs of the compounds A and B alone • [A] and [B]=MICs of the compounds A and B when in combination.
Evaluation of Bactericidal Activity: This method is suitable for use in evaluating the antibacterial properties of chemicals by determining their MIC value. The MIC value represents the Minimum Inhibitory Concentration defined as the lowest level of compound required to achieve a ≧90% kill of a given organism.
Equipment • 1. Test tubes, 18×150 mm disposable culture tubes sterile • 2. Sterile 1 ml and 10 ml pipettes • 3. Incubator capable of maintaining a temperature of 37° C.±1° C. • 4. Autoclave • 5. pH meter • 6. […]
Rating of tubes via plate count method: The Pour Plate Count agar was prepared as described in Standard Methods (American Public Health Association; 1995). […] Colonies formed in or on the plate count medium within 48±2 h were counted as described in Standard Methods, and the results were reported as CFU/milliliter. […]

The subject of assay [2] is Chlorella sp. (ATCC 7516). Nature of the assay: Evaluation of algaecidal activity (MIC) and checkerboard synergy, Chlorella sp. The method, then:
Evaluation of […] Activity: This test method provides a technique for screening newly synthesized compounds for their effectiveness to inhibit (repress) algae growth. […] Apparatus: Test tubes, 18-150 mm. Sterilized test tubes are required. Incubator, capable of a constant (±2° C.) temperature and light regulation. Reagents and Materials: [table] Inoculum: Cell suspension from a culture grown in modified Allen's medium for 14 days or as needed to attain a desired cell mass of Chlorella sp. (ATCC 7516) or Phormidium faveolarum (UTEX 427). The inoculum is calibrated at 82% transmittance measured at 590 nanometers wavelength before inoculation. Procedure: Medium preparation: Modified Allen's medium (Allen, A. A., 1968). [table] Sterilize the medium in the autoclave for 20 minutes at 15 pounds pressure (121° C.). After autoclaving, cool medium to 45-50° C. and dispense 5 ml of medium per test tube, then add the compound and the inoculum. Compound incorporation: Prepare a stock solution in water of the compound to be tested. The concentration of the stock solution is dependent on the largest dosage desired to be tested. Dilute the stock solution to obtain dosages smaller than that chosen for the stock solution. A maximum amount of 100 microliters of stock solution or the corresponding dilution should be added per test tube. Inoculation: Add 100 microliters of inoculum per test tube, per type of medium and type of inoculum. Incubation: Place the test tubes containing the treatments in an incubator set at 24° C. Light is provided by plant growth fluorescent tubes set to provide 16 h of light and 8 h of darkness. […] The minimum inhibitory concentration (MIC) of the compound is the smallest dosage showing negative algae growth. Synergy Evaluation: Synergy was measured by checkerboards dilutions (Yan and Hancock, 2001), in which one compound is diluted along the rows of test tubes and the other is diluted along the columns. This method focuses on looking for a reduction in the MIC of each component in the presence of the other.

In assay [3] the test system is Phormidium faveolarum (UTEX 427). In words: Evaluation of algaecidal activity (MIC) and checkerboard synergy, Phormidium faveolarum. The conditions noted are these: alone, system with 1 ppm a.i. Hydrogen Peroxide, 14 days at 24° C. The method, then:
Evaluation of Algaecidal Activity: This test method provides a technique for screening newly synthesized compounds for their effectiveness to inhibit (repress) algae growth.
Apparatus: Test tubes, 18-150 mm. Sterilized test tubes are required.
Incubator, capable of a constant (±2° C.) temperature and light regulation.
Inoculum: Cell suspension from a culture grown in modified Allen's medium for 14 days or as needed to attain a desired cell mass of Chlorella sp. (ATCC 7516) or Phormidium faveolarum (UTEX 427). The inoculum is calibrated at 82% transmittance measured at 590 nanometers wavelength before inoculation.
Procedure: Medium preparation: Modified Allen's medium (Allen, A. A., 1968).
Sterilize the medium in the autoclave for 20 minutes at 15 pounds pressure (121° C.). After autoclaving, cool medium to 45-50° C. and dispense 5 ml of medium per test tube, then add the compound and the inoculum. […]
Synergy Evaluation: Synergy was measured by checkerboards dilutions (Yan and Hancock, 2001), in which one compound is diluted along the rows of test tubes and the other is diluted along the columns. […] The result is expressed as the Fractional Inhibitory Concentration Index (FIC), calculated as follows: FIC=[A]/MICA+[B]/MICB where, • MICA and MICB=MICs of the compounds A and B alone • [A] and [B]=MICs of the compounds A and B when in combination.

The mark [4] stands for this setting: alone, system with 1 ppm a.i. Hydrogen Peroxide, 14 days at 24° C.

In the case of `O=S(=O)(c1ccccc1)N(Cl)Cl` [Dichloramine B, N,N-dichlorobenzenesulfonamide], the MIC in assay [1] turned out to be 5 µg/mL. Besides, the “MIC Dichloramine B combined with Haloperoxidase and Hydrogen Peroxide” value in assay [2] (combined with 1 ppm product of Haloperoxidase (Novozyme) and 2 ppm a.i. Hydrogen Peroxide, 14 days at 24° C.) is reported as under 0.07 ppm a.i.
For the molecule `CCCCCCCCCCCCCCCC[N+](C)(C)CC.[Br-]` [EHDB, Ethyl-n-Hexadecyl Dimethylammonium Bromide], the minimum inhibitory concentration (MIC) in assay [3] (336 h, read-out: MICA = MIC of EHDB) worked out at 0.5 µg/mL. Besides, the “MICA = MIC of EHDB” value in assay [2] (setting [4]) stood at 0.5 MICA mg a.i./l.
“Benzalkonium Chloride [reference compound]”: the “MICA = MIC of Benzalkonium Chloride” value in assay [3] is on record as 2 MICA mg a.i./l; in assay [2] (alone, reinoculated after 14 days and treated with 1 ppm of hydrogen peroxide, incubated 14 days) it was 2 MICA mg a.i./l; in assay [2] (setting [4]) it was 1 MICA mg a.i./l. Moreover, the “dosage controlling algae growth” value in assay [2] (Example 7, reinoculated only after 14 days, incubated 14 days (result not shown)) is recorded as 2 ppm a.i.

B1: Myeloperoxidase: a myeloperoxidase enzyme obtained from Biodesign International (protein, UniProt P05164 165-745, looked up)
Myeloperoxidase: VTCPEQDKYRTITGMCNNRRSPTLGASNRAFVRWLPAEYEDGFSLPYGWTPGVKRNGFPVALARAVSNEIVRFPTDQLTPDQERSLMFMQWGQLLDHDLDFTPEPAARASFVTGVNCETSCVQQPPCFPLKIPPNDPRIKNQADCIPFFRSCPACPGSNITIRNQINALTSFVDASMVYGSEEPLARNLRNMSNQLGLLAVNQRFQDNGRALLPFDNLHDDPCLLTNRSARIPCFLAGDTRSSEMPELTSMHTLLLREHNRLATELKSLNPRWDGERLYQEARKIVGAMVQIITYRDYLPLVLGPTAMRKYLPTYRSYNDSVDPRIANVFTNAFRYGHTLIQPFMFRLDNRYQPMEPNPRVPLSRVFFASWRVVLEGGIDPILRGLMATPAKLNRQNQIAVDEIRERLFEQVMRIGLDLPALNMQRSRDHGLPGYNAWRRFCGLPQPETVGQLGTVLRNLKLARKLMEQYGTPNNIDIWMGGVSEPLKRKGRVGPLLACIIGTQFRKLRDGDRFWWENEGVFSMQQRQALAQISLPRIICDNTGITTVSKNNIFMSNSYPRDFVNCSTLPALNLASWREAS
As for B1, the “MIC (ppm product)” value in assay [2] (2 ppm a.i. hydrogen peroxide as substrate, 4 ppm a.i. ammonium bromide as electron donor) is under 0.1 ppm product.

The term MIC denotes the least concentration at which growth counts as inhibited.
